Data from patent publication US20260152498A1, “4,5,6,7-TETRAHYDRO-1H-PYRAZOLO[4,3-c]PYRIDINE COMPOUNDS AND DERIVATIVES AS USP1 INHIBITORS” (EXELIXIS, INC., priority 2022, published 2026).

Assays:
[1] = target: T1, USP1-UAF1 complex (Homo sapiens, UniProt O94782); assay: biochemical
Protocol: (§1) Biochemical Assay: The compounds were evaluated for their potential to inhibit USP1-UAF1 complex (Boston Biochem, Catalog: E568-050) using a fluorescence-based assay. The final concentrations of USP1-UAF1 complex protein and substrate Ubiquitin-Rhodamine-110 (R&D systems, Catalog U-555-050) used in the assay were 0.45 and 150 nM respectively. 50 mM HEPES pH. 7.5, 100 mM NaCl, 0.5 mM EDTA, 1 mM TCEP, 10% BSA, 0.01% Tween 20 buffer was used in the assay. The total assay volume was 20 μL. […] The final DMSO concentration in the assay was 1%. The compounds were pre-incubated with USP1-UAF1 complex at 25° C. for 15 min. After preincubation, required concentration of substrate was added and incubated at 25° C. for 60 min. Fluorescence at Excitation: 485 nm, Emission: 535 nm was measured in Victor-5 from Perkin Elmer.
(§2) To determine IC50 values, dose response curves were generated by plotting percentage inhibition as a function of inhibitor concentration and the data was fitted to sigmoidal non-linear regression equation (variable slope) using Graph Pad prism software V8.
(§3) The compounds were screened by the above-mentioned assay procedure.

[2] = target: T1, USP1-UAF1 complex; conditions: 1.2 µM
Protocol: as §1, §2, §3

T1 sequence (O94782 whole entry): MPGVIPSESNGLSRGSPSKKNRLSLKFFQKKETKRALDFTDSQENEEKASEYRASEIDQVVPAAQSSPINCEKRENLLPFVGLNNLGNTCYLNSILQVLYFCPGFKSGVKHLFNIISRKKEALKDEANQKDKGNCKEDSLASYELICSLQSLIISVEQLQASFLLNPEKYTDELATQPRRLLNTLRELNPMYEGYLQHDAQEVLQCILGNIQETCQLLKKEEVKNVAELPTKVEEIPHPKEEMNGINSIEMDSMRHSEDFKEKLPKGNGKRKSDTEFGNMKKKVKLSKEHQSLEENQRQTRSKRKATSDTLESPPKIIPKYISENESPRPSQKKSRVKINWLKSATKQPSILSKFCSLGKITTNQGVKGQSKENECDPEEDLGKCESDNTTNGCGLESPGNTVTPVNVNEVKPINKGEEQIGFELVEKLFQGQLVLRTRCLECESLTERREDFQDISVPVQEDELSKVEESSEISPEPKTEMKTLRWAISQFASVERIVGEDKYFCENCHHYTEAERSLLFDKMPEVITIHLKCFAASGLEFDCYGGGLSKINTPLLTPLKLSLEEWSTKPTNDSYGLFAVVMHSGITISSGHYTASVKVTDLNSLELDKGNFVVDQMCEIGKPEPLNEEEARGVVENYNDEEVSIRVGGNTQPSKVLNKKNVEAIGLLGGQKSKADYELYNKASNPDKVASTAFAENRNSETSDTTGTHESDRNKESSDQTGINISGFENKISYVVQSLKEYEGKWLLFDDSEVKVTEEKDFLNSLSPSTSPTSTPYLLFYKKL
T1 sequence (Q8TAF3 whole entry partner): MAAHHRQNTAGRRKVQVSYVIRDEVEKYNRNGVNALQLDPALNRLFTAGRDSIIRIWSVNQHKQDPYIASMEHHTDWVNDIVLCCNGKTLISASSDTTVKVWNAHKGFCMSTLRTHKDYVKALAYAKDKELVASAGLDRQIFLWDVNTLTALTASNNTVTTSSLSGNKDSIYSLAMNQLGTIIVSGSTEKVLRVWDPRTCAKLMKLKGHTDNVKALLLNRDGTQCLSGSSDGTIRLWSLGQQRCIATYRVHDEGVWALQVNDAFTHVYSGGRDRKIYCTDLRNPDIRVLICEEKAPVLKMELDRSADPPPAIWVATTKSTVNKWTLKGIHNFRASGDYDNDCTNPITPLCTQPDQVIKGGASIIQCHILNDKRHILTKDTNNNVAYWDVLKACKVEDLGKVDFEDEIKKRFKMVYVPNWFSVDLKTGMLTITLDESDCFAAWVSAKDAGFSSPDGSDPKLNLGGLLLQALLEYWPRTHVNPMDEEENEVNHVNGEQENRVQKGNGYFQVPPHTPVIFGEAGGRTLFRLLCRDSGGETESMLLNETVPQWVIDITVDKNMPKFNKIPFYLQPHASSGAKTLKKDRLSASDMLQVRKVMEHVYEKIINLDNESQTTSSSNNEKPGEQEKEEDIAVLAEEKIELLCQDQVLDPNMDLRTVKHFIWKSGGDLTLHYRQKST

| SMILES | IC50 [1] [nM] | inhibition [2] [%] |
| --- | --- | --- |
| CC(C)c1ncccc1-c1nn(C)c2c1CN(c1ccc(-c3nc(C(F)(F)F)cn3C)cc1)CC2 [Compound 3, 3-(2-isopropylpyridin-3-yl)-1-methyl-5-(4-(1-methyl-4-(trifluoromethyl)-1H-imidazol-2-yl)phenyl)-4,5,6,7-tetrahydro-1H-pyrazolo[4,3-c]pyridine] | < 50 | 99 |
| CC(C)c1ncccc1-c1nn(C)c2c1CN(c1ccc(-c3nc(C(F)(F)F)cn3C)nc1)CC2 [Compound 4, 3-(2-isopropylpyridin-3-yl)-1-methyl-5-(6-(1-methyl-4-(trifluoromethyl)-1H-imidazol-2-yl)pyridin-3-yl)-4,5,6,7-tetrahydro-1H-pyrazolo[4,3-c]pyridine] | > 100 | 81 |
| CCn1cc(C(F)(F)F)nc1-c1ccc(N2CCc3c(c(-c4c(OC)ncnc4C4CC4)nn3C)C2)cc1 [Compound 5, 3-(4-cyclopropyl-6-methoxypyrimidin-5-yl)-5-(4-(1-ethyl-4-(trifluoromethyl)-1H-imidazol-2-yl)phenyl)-1-methyl-4,5,6,7-tetrahydro-1H-pyrazolo[4,3-c]pyridine] | < 50 | 100 |
| COCCn1cc(C(F)(F)F)nc1-c1ccc(N2CCc3c(c(-c4c(OC)ncnc4C4CC4)nn3C)C2)cc1 [Compound 9, 3-(4-cyclopropyl-6-methoxypyrimidin-5-yl)-5-(4-(1-(2-methoxyethyl)-4-(trifluoromethyl)-1H-imidazol-2-yl)phenyl)-1-methyl-4,5,6,7-tetrahydro-1H-pyrazolo[4,3-c]pyridine] | < 50 | 99 |
| COc1ncnc(C2CC2)c1-c1nn(C)c2c1CN(c1ccc(-c3nc(C(F)(F)F)cn3C)nc1)CC2 [Compound 12, 3-(4-cyclopropyl-6-methoxypyrimidin-5-yl)-1-methyl-5-(6-(1-methyl-4-(trifluoromethyl)-1H-imidazol-2-yl)pyridin-3-yl)-4,5,6,7-tetrahydro-1H-pyrazolo[4,3-c]pyridine] | < 50 | 98 |
| COc1ncnc(C2CC2)c1-c1nn(C)c2c1CN(c1ccc(-c3nc(C(F)(F)F)cn3C)cn1)CC2 [Compound 13, 3-(4-cyclopropyl-6-methoxypyrimidin-5-yl)-1-methyl-5-(5-(1-methyl-4-(trifluoromethyl)-1H-imidazol-2-yl)pyridin-2-yl)-4,5,6,7-tetrahydro-1H-pyrazolo[4,3-c]pyridine] | < 50 | 98 |
| CCn1cc(C(F)(F)F)nc1-c1ccc(N2CCc3c(c(-c4c(OC)ncnc4C4CC4)nn3C)C2)nc1 [Compound 14, 3-(4-cyclopropyl-6-methoxypyrimidin-5-yl)-5-(5-(1-ethyl-4-(trifluoromethyl)-1H-imidazol-2-yl)pyridin-2-yl)-1-methyl-4,5,6,7-tetrahydro-1H-pyrazolo[4,3-c]pyridine] | 50 to 100 | 99 |
| COc1ncnc(C2CC2)c1-c1nn(C)c2c1CN(c1ccc(-c3nc(C(F)(F)F)cn3C3CCC3)cn1)CC2 [Compound 16, 5-(5-(1-cyclobutyl-4-(trifluoromethyl)-1H-imidazol-2-yl)pyridin-2-yl)-3-(4-cyclopropyl-6-methoxypyrimidin-5-yl)-1-methyl-4,5,6,7-tetrahydro-1H-pyrazolo[4,3-c]pyridine] | < 50 | 99 |
| CCOc1cc(C(F)(F)F)nn1-c1ccc(N2CCc3c(c(-c4c(OC)ncnc4C4CC4)nn3C)C2)cc1 [Compound 20, 3-(4-cyclopropyl-6-methoxypyrimidin-5-yl)-5-(4-(5-ethoxy-3-(trifluoromethyl)-1H-pyrazol-1-yl)phenyl)-1-methyl-4,5,6,7-tetrahydro-1H-pyrazolo[4,3-c]pyridine] | < 50 | 99 |
| COc1ncnc(C2CC2)c1-c1nn(C)c2c1CN(c1ccc(-c3nc(Cl)cn3C)cc1)CC2 [Compound 21, 5-(4-(4-chloro-1-methyl-1H-imidazol-2-yl)phenyl)-3-(4-cyclopropyl-6-methoxypyrimidin-5-yl)-1-methyl-4,5,6,7-tetrahydro-1H-pyrazolo[4,3-c]pyridine] | < 50 | 97 |
| COc1ncnc(C2CC2)c1-c1nn(C)c2c1CN(c1ccc(-c3c(C)noc3C)cn1)CC2 [Compound 23, 4-(6-(3-(4-cyclopropyl-6-methoxypyrimidin-5-yl)-1-methyl-1,4,6,7-tetrahydro-5H-pyrazolo[4,3-c]pyridin-5-yl)pyridin-3-yl)-3,5-dimethylisoxazole] | > 100 | 3 |
| CCn1nc(-c2c(OC)ncnc2C2CC2)c2c1CCN(c1ccc(-c3nc(C(F)(F)F)cn3C)cc1)C2 [Compound 24, 3-(4-cyclopropyl-6-methoxypyrimidin-5-yl)-1-ethyl-5-(4-(1-methyl-4-(trifluoromethyl)-1H-imidazol-2-yl)phenyl)-4,5,6,7-tetrahydro-1H-pyrazolo[4,3-c]pyridine] | < 50 | 98 |

Next, values leading:

| IC50 [1] [nM] | inhibition [2] [%] | SMILES |
| --- | --- | --- |
| 50 to 100 | 98 | COc1ncnc(C2CC2)c1-c1nn(C)c2c1CN(c1ccc(-c3nc(C(F)(F)F)cn3C)cc1)CC2 [Compound 1, 3-(4-cyclopropyl-6-methoxypyrimidin-5-yl)-1-methyl-5-(4-(1-methyl-4-(trifluoromethyl)-1H-imidazol-2-yl)phenyl)-4,5,6,7-tetrahydro-1H-pyrazolo[4,3-c]pyridine] |
| < 50 | – | COc1cccc(C2CC2)c1-c1nn(C)c2c1CN(c1ccc(-c3nc(C(F)(F)F)cn3C)cc1)CC2 [Compound 2, 3-(2-cyclopropyl-6-methoxyphenyl)-1-methyl-5-(4-(1-methyl-4-(trifluoromethyl)-1H-imidazol-2-yl)phenyl)-4,5,6,7-tetrahydro-1H-pyrazolo[4,3-c]pyridine] |
| < 50 | 100 | COc1ncnc(C2CC2)c1-c1nn(C)c2c1CN(c1ccc(-c3nc(C(F)(F)F)cn3C(C)C)cc1)CC2 [Compound 6, 3-(4-cyclopropyl-6-methoxypyrimidin-5-yl)-5-(4-(1-isopropyl-4-(trifluoromethyl)-1H-imidazol-2-yl)phenyl)-1-methyl-4,5,6,7-tetrahydro-1H-pyrazolo[4,3-c]pyridine] |
| < 50 | 100 | COc1ncnc(C2CC2)c1-c1nn(C)c2c1CN(c1ccc(-c3nc(C(F)(F)F)cn3C3CC3)cc1)CC2 [Compound 7, 5-(4-(1-cyclopropyl-4-(trifluoromethyl)-1H-imidazol-2-yl)phenyl)-3-(4-cyclopropyl-6-methoxypyrimidin-5-yl)-1-methyl-4,5,6,7-tetrahydro-1H-pyrazolo[4,3-c]pyridine] |
| < 50 | 100 | COc1ncnc(C2CC2)c1-c1nn(C)c2c1CN(c1ccc(-c3nc(C(F)(F)F)cn3C3CCC3)cc1)CC2 [Compound 8, 5-(4-(1-cyclobutyl-4-(trifluoromethyl)-1H-imidazol-2-yl)phenyl)-3-(4-cyclopropyl-6-methoxypyrimidin-5-yl)-1-methyl-4,5,6,7-tetrahydro-1H-pyrazolo[4,3-c]pyridine] |
| > 100 | 88 | COc1ncnc(C2CC2)c1-c1nn(C)c2c1CN(c1ccc(-c3nc(C(F)(F)F)cn3CCN(C)C)cc1)CC2 [Compound 10, 2-(2-(4-(3-(4-cyclopropyl-6-methoxypyrimidin-5-yl)-1-methyl-1,4,6,7-tetrahydro-5H-pyrazolo[4,3-c]pyridin-5-yl)phenyl)-4-(trifluoromethyl)-1H-imidazol-1-yl)-N,N-dimethylethan-1-amine] |
| > 100 | 86 | COc1ncnc(C2CC2)c1-c1nn(C)c2c1CN(c1ccc(-c3nc(C(F)(F)F)cn3C3CN(C)C3)cc1)CC2 [Compound 11, 3-(4-cyclopropyl-6-methoxypyrimidin-5-yl)-1-methyl-5-(4-(1-(1-methylazetidin-3-yl)-4-(trifluoromethyl)-1H-imidazol-2-yl)phenyl)-4,5,6,7-tetrahydro-1H-pyrazolo[4,3-c]pyridine] |
| 50 to 100 | 96 | COc1ncnc(C2CC2)c1-c1nn(C)c2c1CN(c1ccc(-c3nc(C(F)(F)F)cn3C(C)C)cn1)CC2 [Compound 15, 3-(4-cyclopropyl-6-methoxypyrimidin-5-yl)-5-(5-(1-isopropyl-4-(trifluoromethyl)-1H-imidazol-2-yl)pyridin-2-yl)-1-methyl-4,5,6,7-tetrahydro-1H-pyrazolo[4,3-c]pyridine] |
| < 50 | 100 | COc1ncnc(C2CC2)c1-c1nn(C)c2c1CN(c1ccc(-n3nc(C(F)(F)F)cc3C)cc1)CC2 [Compound 17, 3-(4-cyclopropyl-6-methoxypyrimidin-5-yl)-1-methyl-5-(4-(5-methyl-3-(trifluoromethyl)-1H-pyrazol-1-yl)phenyl)-4,5,6,7-tetrahydro-1H-pyrazolo[4,3-c]pyridine] |
| < 50 | 99 | COc1ncnc(C2CC2)c1-c1nn(C)c2c1CN(c1ccc(-n3nc(C(F)(F)F)cc3OC)cc1)CC2 [Compound 19, 3-(4-cyclopropyl-6-methoxypyrimidin-5-yl)-5-(4-(5-methoxy-3-(trifluoromethyl)-1H-pyrazol-1-yl)phenyl)-1-methyl-4,5,6,7-tetrahydro-1H-pyrazolo[4,3-c]pyridine] |
| > 100 | 39 | COc1ncccc1-c1ccc(N2CCc3c(c(-c4c(OC)ncnc4C4CC4)nn3C)C2)nc1 [Compound 22, 3-(4-cyclopropyl-6-methoxypyrimidin-5-yl)-5-(2'-methoxy-[3,3′-bipyridin]-6-yl)-1-methyl-4,5,6,7-tetrahydro-1H-pyrazolo[4,3-c]pyridine] |
| > 100 | 92 | CCn1nc(-c2c(OC)ncnc2C2CC2)c2c1CCN(c1ccc(-c3nc(C(F)(F)F)cn3C)nc1)C2 [Compound 25, 3-(4-cyclopropyl-6-methoxypyrimidin-5-yl)-1-ethyl-5-(6-(1-methyl-4-(trifluoromethyl)-1H-imidazol-2-yl)pyridin-3-yl)-4,5,6,7-tetrahydro-1H-pyrazolo[4,3-c]pyridine] |
